Laboratory results: US9517233B2, “Local cochlear application of statins for stimulating neurite regrowth in the cochlea” (Northwestern University, priority 2012, dated 2016)
Entries after “also recorded” stand apart in the source; their conditions may differ.

Legend:
spiral ganglion neurons = test: In vitro phenotypic screening assay of neurite length in spiral ganglion cultures; format: cell-based, mouse; conditions: for lowest effective dose for stimulating neurite growth (neurite length dose response) / effect on neurite length: spiral ganglion cultures; for lowest effective dose for stimulating neurite growth (neurite length dose response): cumulative percent histograms of neurite length vs DMSO control, highest dose tested 25 μM for Pravastatin; for effect on neurite length at 10 μM: media containing compound at 10 μM, DMSO negative control, 4 replicate cultures; for effect on neurite length: compound in culture media
Source text: The in vitro phenotypic screen for spiral ganglion neurons is designed to identify both survival promoting and neurite promoting compounds. The screening procedure focuses on the survival, neurite initiation and neurite elongation steps of the experimental model (FIG. 5A-C). […] Newborn mouse pups served as a source for preparing primary cultures of the spiral ganglia from 16 cochleas. From these cochleas, 192 cultures in a 384 well plate that enables screening of 45 compounds and 3 controls for each dissection.
The screening approach preferably uses automated imaging and computer assisted data analysis. […] Populations of neurites are measured and graphed as cumulative percent histograms of neurite length. In these graphs, a shift to the right means that the population had longer neurites.
CD-1 mice (Charles River Laboratories, Wilmington Mass. [US]), age newborn, were used for cultures that test neurite length; postnatal day 1-2 mice were used for cultures that test survival. Mice were anesthetized by cooling at −80° C. for 4 minutes and euthanized by aseptic decapitation.
Cultures were prepared by a modification of the procedure previously reported and modified (Whitlon et al., Neuroscience 138, 653-662 (2006); Lie et al., Neuroscience 169, 855-862 (2010); Whitlon et al. Neuroscience 146, 833-840 (2007); Whitlon et al., Neuroscience 161, 227-235 (2009)). To increase the number of cultures produced from one dissecting session while maintaining consistency in the preparations, the number of animals was increased to 8 (16 cochleas, a practical limit) and the volume of the cultures was decreased to 50 μl. Cells derived from the equivalent of […] ganglia were plated in each well. These changes allowed the material from each dissection session to be cultured in 192 wells of a standard 384 well plate. Each dissection session could accommodate 3 controls and 45 compounds in quadruplicate. The cochlear capsule was opened and the tissue was treated with Dispase, 5 units/ml. After washing, the cochlea was removed from its capsule. The cochlear epithelium, spiral ligament and stria were dissected away. […] Both were then diluted in medium and added to the wells 22 hours after plating. Cultures were fixed 24 hours later with 4% paraformaldehyde in 0.1M sodium phosphate buffer, pH 7.2 for 45 minutes. Conditions were tested in quadruplicate. […] Negative controls were the vehicles DMSO (0.17%) and water (0.17%).
Fixed cultures were immunolabeled for the neural βIII tubulin using the mouse monoclonal antibody TuJ1 and Alexa Fluor 594 tagged secondary antibody as described for immunofluorescent labeling (Whitlon et al. Neuroscience 161, 227-235 (2009)). Nuclei were visualized with Nuclear Yellow. The labeled cultures were preserved with one drop of DAKO fluorescent mounting medium in each well.
The immunolabeled 384 well plates were loaded into an Image Xpress automatic imager for image acquisition.

[1] = tested on: PTS noise exposed guinea pigs; test: Guinea pig model of PTS, auditory brainstem response (ABR) thresholds after noise exposure; format: in vivo; conditions: left ear infused with 50 μM Fluvastatin, 250 μL over 28 days by miniosmotic pump, from noise exposure on; hearing measured in contralateral right ear
Source text: A testing method with a guinea pig model of PTS was developed for this purpose. Compounds were introduced into the left ear of the subject with a cannula attached to a miniosmotic pump. Because the cannula is physically within the cochlea, it had the possibility of interfering with sound transfer in the cochlea, and thereby interfering with auditory brain response (ABR) measurements. For this reason, the compound was delivered via cannula to the left ear, but tested for its effect in the contralateral ear, taking advantage of the connection between cochlear fluids and the cerebral spinal fluid. Animals were subjected to an sound injury causing PTS. Fluvastatin was delivered in vivo to the left ear at 50 times the concentration that was effective for stimulating neurite growth in vitro and ABRs were evaluated in the contralateral, right cochleas. […] The compound was first evaluated for the ability to provide a protective effect from hearing loss attributed to high level noise, wherein the compound was delivered at the same time as the noise exposure and for 4 weeks thereafter. […]
Drug efficiency was tested in guinea pigs, 200-500 g in body weight. […] Baseline cochlear function was determined with auditory brainstem responses. Sound levels to evoke a visual ABR response were determined for pure tones at selected frequencies between 2 and 32 kHz and for acoustic clicks. […]

| Structure (SMILES) | lowest effective dose for stimulating neurite growth (neurite length dose response) (spiral ganglion neurons) [µM] | effect on neurite length (spiral ganglion neurons) | further results |
| --- | --- | --- | --- |
| CC(C)n1c(/C=C/[C@H](O)C[C@H](O)CC(=O)O)c(-c2ccc(F)cc2)c2ccccc21 (stereo in doubt) [Fluvastatin, (3S,5R,6E)-7-[3-(4-fluorophenyl)-1-(propan-2-yl)-1H-indol-2-yl]-3,5-dihydroxyhept-6-enoic acid] | 1 | – | protection from hearing loss / permanent threshold shift (ABR threshold change) [1]: effective protection by preventing hearing loss; also recorded: PTS injury could not be induced |
| CC(C)c1c(C(=O)Nc2ccccc2)c(-c2ccccc2)c(-c2ccc(F)cc2)n1CC[C@@H](O)C[C@@H](O)CC(=O)O [Atorvastatin, (3R,5R)-7-[2-(4-fluorophenyl)-3-phenyl-4-(phenylcarbamoyl)-5-(propan-2-yl)-1H-pyrrol-1-yl]-3,5-dihydroxyheptanoic acid] | 10 | – | – |
| COCc1c(C(C)C)nc(C(C)C)c(/C=C/[C@@H](O)C[C@@H](O)CC(=O)O)c1-c1ccc(F)cc1 [Cerivastatin] | 1 | – | effect of geranylgeraniol on the statin's stimulation of neurite length (spiral ganglion neurons; media containing both statin (Cerivastatin 10 μM or Fluvastatin 5 μM) and geranylgeraniol (10 μM)): effectively blocked the stimulatory effect; effect on neurite length at 10 μM (spiral ganglion neurons): increased neurite length; neurite growth compared with positive control H1152 (spiral ganglion neurons; screen of NIH Clinical Collection, FIG. 11A): stimulated neurite growth as well as H1152 |
| O=S(=O)(c1cccc2cnccc12)N1CCCNCC1 [Fasudil] | – | stimulated neurite length | – |
| Cc1cncc2cccc(S(=O)(=O)N3CCCNC[C@@H]3C)c12 [H1152, 4-methyl-5-{[(2S)-2-methyl-1,4-diazepan-1-yl]sulfonyl}isoquinoline] | – | stimulate neurite length; also recorded: increased neurite lengths | – |
| O=c1[nH]ccc2c(S(=O)(=O)N3CCCNCC3)cccc12 [Hydroxyl Fasudil] | – | stimulated neurite length | – |
| CC[C@H](C)C(=O)O[C@H]1C[C@@H](C)C=C2C=C[C@H](C)[C@H](CC[C@@H]3C[C@@H](O)CC(=O)O3)[C@H]21 [Lovastatin, (1S,3R,7S,8S,8aR)-8-{2-[(2R,4R)-4-hydroxy-6-oxooxan-2-yl]ethyl}-3,7-dimethyl-1,2,3,7,8,8a-hexahydronaphthalen-1-yl (2S)-2-methylbutanoate] | 5 | – | – |
| O=C(O)C[C@H](O)C[C@H](O)/C=C/c1c(C2CC2)nc2ccccc2c1-c1ccc(F)cc1 [Pitavastatin, (3R,5S,6E)-7-[2-cyclopropyl-4-(4-fluorophenyl)quinolin-3-yl]-3,5-dihydroxyhept-6-enoic acid] | 2 | increase neurite length; also recorded: effective up to the highest dose tested | measured lengths of neurites compared with positive control H1152 (spiral ganglion neurons; Pitavastatin at 2 μM or higher, H1152 16.5 μM): as long or longer |
| CC[C@H](C)C(=O)O[C@H]1C[C@H](O)C=C2C=C[C@H](C)[C@H](CC[C@@H](O)C[C@@H](O)CC(=O)O)[C@H]21 [Pravastatin] | > 25 | – | – |
| CCC(C)(C)C(=O)O[C@H]1C[C@@H](C)C=C2C=C[C@H](C)[C@H](CC[C@@H]3C[C@@H](O)CC(=O)O3)[C@H]21 [Simvastatin, (1S,3R,7S,8S,8aR)-8-{2-[(2R,4R)-4-hydroxy-6-oxooxan-2-yl]ethyl}-3,7-dimethyl-1,2,3,7,8,8a-hexahydronaphthalen-1-yl 2,2-dimethylbutanoate] | 5 | – | – |
| CC(C)=CCC/C(C)=C/CC/C(C)=C/CC/C(C)=C/CO [geranylgeraniol] | – | – | effect on neurite length at 10 μM (spiral ganglion neurons): no effect upon growth of neurite length |
